{"source": "patent US20140350114A1", "about": "“COMPOSITIONS COMPRISING CYCLOHEXYLAMINES AND AMINOADAMANTANES” (MERZ PHARMA GmbH & CO. KGaA, priority 2003, published 2014)", "key": {"[1]": {"test": "antimicrobial activity in preserving liquid aqueous formulations (general observation)", "conditions": "at concentrations useful for pharmaceutical formulation purposes"}, "[2]": {"system": "Candida albicans, Aspergillus niger, Escherichia coli, Pseudomonas aeruginosa, Staphylococcus aureus", "test": "Antimicrobial Effectiveness Testing USP <51>, overall conclusion", "format": "cell-based", "conditions": "all inoculums", "description": "The testing was performed in accordance with the USP <51> using the culture conditions for inoculum specified in the test conditions. The Antimicrobial Effectiveness Testing (referred to later in the text as APE or antimicrobial effectiveness) is performed as described in USP 26, The United States Pharmacopeial Convention, Inc. (Rockville, Md., 2002; pp. 2002-2004). The test is conducted in five sterile, capped bacteriological containers into which a sufficient volume of product has been transferred. Test organisms include Candida albicans (ATCC No. 10231), Aspergillus niger (ATCC No. 16404), Escherichia coli (ATCC No. 8739), Pseudomonas aeruginosa (ATCC No. 9027), Staphylococcus aureus (ATCC No. 6538). Each container is inoculated with one of the prepared and standardized inoculum, and mix. […] The number of cfu present in each test preparation is determined by the plate-count procedure, specified in the monograph, for the applicable intervals. Using the calculated concentrations of cfu per mL present at the start of the test, the change in log10 values of the concentration of cfu per mL for each microorganism is calculated at the applicable test intervals, and the changes in terms of log reductions is expressed. Results are evaluated in accordance with the Product Category for Oral Products made with aqueous bases or vehicle."}}}
{"molecule": "CN(C)CCOCC(=O)NC12CC3CC(CC(C3)C1)C2", "note": "[tromantadine, 1-(dimethylaminoethoxyacetamido) adamantane]", "values": [{"measurement": "antimicrobial activity", "setting": "[1]", "value": "significant antimicrobial activity"}]}
{"molecule": "CC12CC3CC(C)(C1)CC(N)(C3)C2", "note": "[memantine, 1-amino-3,5-dimethyl adamantane]", "values": [{"measurement": "antimicrobial activity", "setting": "[1]", "value": "significant antimicrobial activity"}]}
{"molecule": "CC1(C)CC(C)(C)CC(C)(N)C1", "note": "[neramexane, 1-amino-1,3,3,5,5-pentamethylcyclohexane]", "values": [{"measurement": "antimicrobial / preservative effectiveness against USP <51> criteria (conclusion)", "setting": "[2]", "value": "sufficient preservative efficacy"}, {"measurement": "antimicrobial activity", "setting": "[1]", "value": "significant antimicrobial activity"}]}
